Measurements as given in paper PMC12667295, “A surrogate barrier model for high-throughput blood-brain barrier permeability prediction: integrating LLC-PK1-MOCK/MDR1 Cells and lysosomal trapping correction” (Drug Delivery, 2025).
Like-named read-outs stand apart in the source and are kept apart here.

Experiments:
P-gp (human MDR1) [1] = test: Bidirectional transport across LLC-PK1-MDR1 monolayer stably expressing human MDR1 (P-gp) (Transwell); conditions: pig;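 note: 2 h incubation at 37 °C, receiver HBSS with 10 mM Hepes plus 1% BSA, LC-MS/MS of donor and receiver, recovery as receiver plus donor amount over initial donor amount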
Experimental: (§1) The overexpression and functional activity of P-glycoprotein (P-gp) in the LLC-PK1-MDR1 cells were rigorously validated through multiple methods.
(§2) Cells were passaged at 80−90% confluence (every 2−3 days) using trypsin-EDTA solution. […] The culture medium was replaced every other day, including 200 µL culture medium in the apical and 850 µL cell culture medium in the basolateral side. LLC-PK1 MOCK cells were used at passages of 3−30. LLC-PK1-MDR1 cells were cultured and passaged in the same manner as LLC-PK1 cells except at the density of 1 × 10^4 cells per well. LLC-PK1-MDR1 cells were used at passages of 3−25. For LLC-PK1 MOCK cells and LLC-PK1-MDR1 cells, the experiments were performed on the 4th and 7th day after seeding.
(§3) Monitoring permeability of positive control drugs. […] Samples were collected from the donor well at the start of the incubation (50 µL) as C0, and from the donor and receiver wells at the end of the incubation (50 µL). All samples were stored at - 40 °C for LC-MS/MS analysis.
(§4) Bidirectional transport experiments. […] The transwell experiments were conducted following above-mentioned procedure. […] When the recovery rate of the tested drug is below 80%, the possibility of intracellular accumulation should be considered. The polycarbonate (PC) membrane where cells are grown should be carefully peeled off from the cell culture medium and placed in 100 µL of HBSS buffer solution. […] The process was carried out on ice to prevent heat-induced degradation, applying a power in the range of 300 W for a total duration of 20 minutes. Thereafter, a quantitative analysis of the intracellular drug was conducted, and the drug recovery rate was recalculated based on this analysis.
(§5) The apparent permeability coefficient (Papp, cm/s) was calculated for each transport direction, A-B and B-A, using the following equation: Papp=dQ/dt×1/A×C0 where dQ/dt is the permeation rate (µmol/s), A is the surface area of the insert (0.33 cm^2, Corning), and C0 is the initial donor concentration (µM).
(§6) The efflux ratio (ER) is calculated as the ratio of Papp (B-A)/Papp (A-B). Recovery=TRcumrf+Cdf×VD/Cdi×VD×100% Where TRcumrf is the cumulative transported mass in the receiver chamber at the end of the incubation (nmol), Cdf is the concentration of the drug in the donor chamber at the end of the incubation (μM), VD is the volume of the donor chamber (mL), and Cdi is the initial concentration of the drug in the donor chamber (μM).
(§7) The method of the bidirectional transport experiment was the same as before.

in vivo = conditions: rat
Source text: In vivo unbound brain distribution data (Kp,uu,Brain) for 16 drugs and total brain distribution data (Kp,Brain) for 16 drugs was acquired from literature. […] For each tested compound, fifteen rats were randomly divided into five groups of three rats each. […] The time of execution of the rats by CO2 inhalation after administration was optimized according to the in vivo elimination rate to achieve five concentrations of different time points. After the rats were euthanized, cardiac puncture was performed immediately to remove as much whole blood as possible (~7 ml) from the systemic circulation (Quantitatively aliquot 0.2 ml of whole blood for the determination of drug concentration in plasma). Afterwards, the brain tissue was collected immediately and rinsed repeatedly with ice-cold saline 3 times. Then, the surface saline was blotted dry with clean filter paper to remove as much residual drug in the blood vessels as possible. Plasma samples were prepared by centrifugation of the blood samples at 2,500 g for 10 minutes at 4 °C. All brain samples were homogenized by adding 4-fold volume water. All samples were stored at -40 °C before LC-MS/MS analysis. […] The brain tissue partition coefficient (Kp, brain) and brain-to-plasma unbound drug partition ratio (Kp,uu, brain) are calculated according to the following formulas, respectively: Kp,brain=AUC(0−∞,brain)/AUC(0−∞,plasma)Kp,uu,brain=Kp,brain×(fu,tissue/fu,plasma)
Free brain-to-plasma distribution coefficients (Kp,uu,brain) of 41 drugs. Brain distribution coefficients (Kp,uu,brain) were calculated for 41 drugs. […] Plasma and brain concentration-time profiles were generated, and AUC(0-t) values for both matrices were calculated using WinNolin 8.1. Kp,brain was derived as the ratio of brain-to-plasma AUC(0-t).
Kp,uu,brain values were computed by normalizing Kp,brain to unbound fractions (fu,plasma and fu,brain).

[2] = cited from earlier work
[3] = design: method as in Internal data; conditions: footnote a; ref Internal data; cited from earlier work
[4] = Bidirectional transport across LLC-PK1 MOCK monolayer (Transwell); conditions: pig; for Papp A→B at 2 h, 2 µM: LLC-PK1, pH 7.4, Papp A-B, LLC-PK1 MOCK, mean ± s, n = 3, BLQ = below 2 nM;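 for all read-outs here: compound quantified by LC-MS/MS in donor and receiver wells, efflux ratio as B-A over A-B Papp, recovery relative to initial donor amount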
[5] = footnote a; ref Internal data; cited from earlier work
in vitro = conditions: pig, LLC-PK1 MOCK cell monolayer (Transwell), pH 7.4
P-gp (human MDR1) [6] = test: in vitro; conditions: pig, LLC-PK1, pH 7.4
Experimental: as §1, §2, §3, §4, §5, §6, §7

Papp B→A at 2 h, 2 µM (P-gp (human MDR1) [1]; LLC-PK1, pH 7.4) | Papp A→B at 2 h, 2 µM (P-gp (human MDR1) [1]; LLC-PK1, pH 7.4, Papp A-B, LLC-PK1-MDR1, 2 µM, 2 h, mean ± s, n = 3) | Kp uu (in vivo) | Papp B→A at 2 h, 2 µM ([4]; LLC-PK1, pH 7.4) | Papp A→B at 2 h, 2 µM [4] | Papp A→B at 2 h, 2 µM (P-gp (human MDR1) [1]; LLC-PK1, pH 7.4) | efflux ratio at 2 h, 2 µM (P-gp (human MDR1) [1]; LLC-PK1, pH 7.4) | recovery at 2 h, 2 µM (in vitro) | efflux ratio at 2 h, 2 µM ([4]; LLC-PK1, pH 7.4) | recovery at 2 h, 2 µM (P-gp (human MDR1) [6]) | Structure (SMILES) | Protein binding in plasma ([2]; footnote a, ref Internal data) | Protein binding in brain tissue [3] | Kp, Brain [5] | Protein binding in plasma ([2]; ref Le Quellec et al. [1994])
29.1 ± 3.62 ×10⁻⁶ cm/s | 30.2 ± 3.4 ×10⁻⁶ cm/s | 2.21 | 35.2 ± 2.56 ×10⁻⁶ cm/s | 30.8 ± 0.61 ×10⁻⁶ cm/s |  |  |  |  |  | Cc1cccc([C@H](C)c2cnc[nH]2)c1C [Dexmedetomidine] | 95.2^a % | 86.7^a % | 0.80^a | 
21.7 ± 1.08 ×10⁻⁶ cm/s |  | 0.575 | 20.6 ± 0.92 ×10⁻⁶ cm/s | 22.4 ± 0.51 ×10⁻⁶ cm/s | 20.8 ± 1.43 ×10⁻⁶ cm/s | 1.02 | 105 ± 2.95% | 0.92 | 93.1 ± 1.67% | COc1ccc2[nH]cc(CCNC(C)=O)c2c1 [Melatonin] |  | 30.0^a % | 0.5^a | 33.0%
